{
  "source": "patent US20160297828A1",
  "about": "“SPIROCYCLIC COMPOUNDS CONTAINING SPIRO[INDOLYL-3,1'-PYRROLO[3,4-C]PYRROLE] CORE AND SULPHUR-CONTAINING AMINO ACID RESIDUES” (priority 2013, published 2016)",
  "key": {"Acute toxicity in rats": {"test": "Acute toxicity in rats", "type": "in vivo", "settings": "rat, in vivo, oral; rats", "experimental": "(§1) The acute toxicity study was conducted when administered compounds SI-86 to rats into the stomach at doses of 3500 and 4000 mg/kg. Each dose was tested in 4 animals. The duration of observation of rats after administration of test compound was 2 weeks."}, "rats": {"test_system": "rats", "test": "Acute toxicity in rats", "type": "in vivo", "settings": "for Effect (died/total): 2 weeks observation", "experimental": "as §1"}, "11β-corticosterone [1]": {"test_system": "11β-corticosterone", "test": "11β-corticosterone level in venous blood of pseudo-operated rats (ELISA)", "type": "in vivo, Wistar rats", "settings": "pseudo-operated animals + SI-86 10 mg/kg iv", "experimental": "(§2) Pseudo-operated rats were exposed to all interventions (anesthesia, skin incision, dissection of vessels) except arteries ligation that leveled traumatic impact of experimental conditions.\n(§3) To determine a corticosterone level (species-specific cortisol analogue in rats, which is also a substrate for 11β-HSD1) in the corresponding period (4 th and 21 st CVA day) in rat by sagittal sinus puncture, blood was sampled (0.2-0.4 ml). The cortisol level was measured by ELISA using a CORTICOSTERONEE KIT set (Germany) on the instrument of the company “Hipson” (Czech Republic).\nTo establish the effect of course administration of SI-86 compound on steroid synthesis in animals without cerebral ischemia the dynamics of its level in pseudo-operated rats in the same period was additionally determined."}, "[2]": {"test_system": "neuron-specific enolase (NSE)", "test": "Neuron-specific enolase (NSE) activity in rats with intracerebral hemorrhage (ELISA)", "type": "in vivo", "settings": "for NSE activity (dynamics of neurodestructive changes): acute cerebral hemorrhage, n = 7; for enzyme activity decreased in relation to the control pathology group / efficiency in reducing NSE better than citocoline: hemorrhage", "experimental": "The derivative of 3,2′-spiro-pyrrolo-2-oxindole was investigated in conventionally effective dose of 10 mg/kg […] (iv)—dose that according to the results of our previous studies provided maximum antihypoxic activity of SI-86 compound. Reference drugs were injected intraperitoneally (ip). […] Autoblood was injected to rats with control pathology and 0.9% NaCI solution was administered as therapy calculated for 2 ml/kg ip.\nPsevdooperated rats were exposed to all interventions (anesthesia, craniotomy) with the exception of autoblood administration that leveled traumatic impact of experimental conditions.\nTo determine neuron-specific enolase, the specific marker of cerebral ischemia,—for corresponding period (4 th and 21 st day of CVA) in rats, blood was sampled by sagittal sinus puncture (0.2-0.4 ml). NSE activity was measured by ELISA using a set NSE EIA KIT (DAI, USA) on the instrument of the company “Hipson” (Czech Republic)."}, "11β-corticosterone [3]": {"test_system": "11β-corticosterone", "test": "11β-corticosterone level in venous blood of rats with bilateral carotid occlusion (ELISA)", "type": "in vivo, Wistar rats", "settings": "for dynamics in percents in relation to control pathology group / dynamics in percents in relation to the group of pseudo-operated animals / 11β-corticosterone level in venous blood: BCO", "experimental": "The neuroprotective effect of 3,2′-spiro-pyrrolo-2-oxindole derivative (SI-86 compound) was studied in Wistar rats on a model of cerebrovascular accident (CVA) of ischemic type in archencephalic pool forming bilateral carotid occlusion (BCO) by carotid artery ligation. The ligations for common carotid arteries was imposed under propofol anesthesia at a dose of 60 mg/kg intraperitoneally (ip), using surgical access to the front of the neck cutting through its white line. The chosen model allows to reproduce the clinical pattern of ischemic stroke and is adequate for clinical study of potential neuroprotective substances (Drug discovery and Evaluation: pharmacological assays/H. Gerhard Vogel (ed.).-2nd ed. 1453p.).\nThe derivative of 3,2′-spiro-pyrrolo-2-oxindole was investigated in conventionally effective dose of 10 mg/kg […] (iv)—dose which is provided maximum antihypoxic activity of SI-86 compound by the results of our previous study. The reference drugs were injected intraperitoneally (ip). BCO was applied to the rats of control pathology and 0.9% NaCI solution was administered as therapy calculated for 2 ml/kg ip.\nas §2, §3"}, "[4]": {"test_system": "rats with intracerebral hemorrhage", "test": "Lethality of rats with intracerebral hemorrhage of average severity", "type": "in vivo", "experimental": "The chosen model allows to reproduce clinical pattern of […] and is adequate for clinical study of potential neuroprotective agents.\nAs comparators the following drugs were used: mexydol (“Mexydol” UC Pharmasoft, Russia), 100 mg/kg; citicoline (“Somazina” Ferrer International, SA, Spain), 250 mg/kg; aktovegin (“Aktovegin”, Nycomed, Austria), 16 mg/kg pyracetam (“Pyracetam” Darnitsa, Ukraine), 400 mg/kg. According to the latest clinical guidelines regarding the treatment of patients with CVA approved by the Ministry of Health of Ukraine (Order No. 602 dated 3 Aug. 2012), all these drugs are allowed to be included into schemes for intensive patients therapy with CVA as neuroprotective agents. They were used at recommended doses for preclinical studies (McGrow C. P. Experimental Cerebral Infarction Effects of Pentobarbital in Mongolian Gerbils/C. P. McGrow//Arch. Neurol.-1977.-Vol. 34, No. 6.-P. 334-336). Experimental therapy of acute cerebral ischemia with SI-86 compound and comparator started 1 hour after IUD once a day for 21 days. […] Reference drugs were injected intraperitoneally (ip). Rats of control pathology group were injected by autoblood and as therapy 0.9% NaCI solution was administered calculated for 2 ml/kg iv.\nPseudo-operated rats were exposed to all interventions (anesthesia, craniotomy) excluding autoblood administration that leveled traumatic impact of experimental conditions.\nEvaluation of the ability of animals to learn and memorize of aversive stimulus was examined in the test of conditioned response of passive avoidance (CRPA). The technique is based on innate rat instinct to limited shadowy space. The study in rats was conducted in two-compartment unit consisted of two sections—light and dark. An animal was arranged into light compartment, fixing latency time for entering into the dark compartment, wherein rat received current irritation and ran in the light compartment. CRPA retention was tested every other day under latency time change of rat entering into the dark compartment. Also the number of animals was noted not fully entered the dark chamber. Cerebroprotective efficiency criteria of studied compounds were also animal death term (days) and their mortality rate (in %).\nQuantitative data were processed using statistical StatPlus 2009 processing. The statistical significance of differences was assessed by Fisher's angular transformation (lethality outcome), also parametric t Student criterion were used in case of normal distribution of variation series, nonparametric W White criterion—in its absence."}, "[5]": {"settings": "day 4, SI-86 10 mg/kg iv, citocoline 250 mg/kg ip"}, "[6]": {"settings": "12 h, SI-86 10 mg/kg iv, mexydol 100, citocoline 250, actovegin 16, pyracetam 400 mg/kg"}},
  "note": "“And” between values parts separate entries of the source, which are not always exact repeats. Equal entries are not always repeated. Marks after values point to notes of the source that are not given here.",
  "data": [
    {"smiles": "CSCC[C@@H]1N[C@@]2(C(=O)Nc3ccccc32)[C@@H]2C(=O)N(c3ccc(C)cc3)C(=O)[C@H]12", "note": "[SI-86, 5′-(4-Methylphenyl)-3′-[2-(methylthio)ethyl]-3a′,6a′-dihydro-2′H-spiro[indole-3,1′-pyrrolo[3,4-c]pyrrol]-2,4′,6′(1H,3′H,5′H)-trione]", "values": [
      {"measurement": "LD50 at 2 weeks", "setting": "Acute toxicity in rats", "result": "501 to 5000", "unit": "mg/kg"},
      {"measurement": "Effect (died/total)", "setting": "rats; 3500 mg/kg single administration", "result": "all animals survived and 0/4"},
      {"measurement": "rats died", "setting": "rats; 4000 mg/kg", "result": 25, "unit": "%"},
      {"measurement": "Effect (died/total)", "setting": "rats; 4000 mg/kg single administration", "result": "1/4"},
      {"measurement": "toxicity class according to Hodge and Sterner classification", "setting": "rats; rat, in vivo", "result": "IV class of toxicity"},
      {"measurement": "11β-corticosterone level in venous blood", "setting": "11β-corticosterone [1]; day 4", "result": "81.95 ± 0.61", "unit": "ng/mL"},
      {"measurement": "dynamics in percents in relation to the group of pseudo-operated animals", "setting": "11β-corticosterone [1]; day 4", "result": "(−31.9%)"},
      {"measurement": "11β-corticosterone level in venous blood", "setting": "11β-corticosterone [1]; day 21", "result": "83.02 ± 4.25", "unit": "ng/mL"},
      {"measurement": "dynamics in percents in relation to the group of pseudo-operated animals", "setting": "11β-corticosterone [1]; day 21", "result": "(−10.2%)"},
      {"measurement": "NSE activity (dynamics of neurodestructive changes)", "setting": "[2]; [5]", "result": "1.065 ± 0.019*^#•"},
      {"measurement": "NSE activity (dynamics of neurodestructive changes)", "setting": "[2]; day 21, same doses", "result": "0.260 ± 0.014*^#•"},
      {"measurement": "enzyme activity decreased in relation to the control pathology group", "setting": "[2]; 96 hours", "result": 2.6, "unit": "times"},
      {"measurement": "enzyme activity decreased in relation to the control pathology group", "setting": "[2]; 21 days", "result": 3.6, "unit": "times"},
      {"measurement": "efficiency in reducing NSE better than citocoline", "setting": "[2]; acute period", "result": 17.6, "unit": "%"},
      {"measurement": "efficiency in reducing NSE better than citocoline", "setting": "[2]; recovery period", "result": 15.9, "unit": "%"},
      {"measurement": "dynamics in percents in relation to control pathology group", "setting": "11β-corticosterone [3]; day 4", "result": "[−60.2%]"},
      {"measurement": "dynamics in percents in relation to the group of pseudo-operated animals", "setting": "11β-corticosterone [3]; day 4", "result": "(+54.8%)"},
      {"measurement": "11β-corticosterone level in venous blood", "setting": "11β-corticosterone [3]; [5]", "result": "186.12 ± 1.43", "unit": "°*^# ng/ml"},
      {"measurement": "dynamics in percents in relation to control pathology group", "setting": "11β-corticosterone [3]; day 21", "result": "[−57.1%]"},
      {"measurement": "dynamics in percents in relation to the group of pseudo-operated animals", "setting": "11β-corticosterone [3]; day 21", "result": "(+55.2%)"},
      {"measurement": "11β-corticosterone level in venous blood", "setting": "11β-corticosterone [3]; day 21, same doses", "result": "144.67 ± 3.43", "unit": "°*^#• ng/ml"},
      {"measurement": "ability to reduce corticosterone content, better than citocoline", "setting": "11β-corticosterone [3]; CVA acute period", "result": 1.46, "unit": "times"},
      {"measurement": "corticosterone concentration in sagittal sinus blood decreased in relation to the control pathology group", "setting": "11β-corticosterone [3]; after 96 hours", "result": 60.2, "unit": "%"},
      {"measurement": "corticosterone concentration in sagittal sinus blood decreased in relation to the control pathology group", "setting": "11β-corticosterone [3]; after 21 days", "result": 57.1, "unit": "%"},
      {"measurement": "ability to reduce corticosterone content, better than citocoline", "setting": "11β-corticosterone [3]; recovery period", "result": 1.62, "unit": "times"},
      {"measurement": "Lethality, %", "setting": "[4]; [6]", "result": "0/0%"},
      {"measurement": "Lethality, abs.", "setting": "[4]; [6]", "result": "0/0%"},
      {"measurement": "Lethality, abs.", "setting": "[4]; 24 h, same doses", "result": "0/0%*^#"},
      {"measurement": "cerebroprotective protection", "setting": "[4]; 24 h observation, SI-86 10, mexydol 100, citicoline 250 mg/kg", "result": 100, "unit": "%"},
      {"measurement": "Lethality, abs.", "setting": "[4]; 48 h, same doses", "result": "0/0%*^#&•$"},
      {"measurement": "Lethality, %", "setting": "[4]; 72 h, same doses", "result": 5.9, "unit": "%"},
      {"measurement": "Lethality, abs.", "setting": "[4]; 72 h, same doses", "result": 2},
      {"measurement": "Lethality, %", "setting": "[4]; 96 h, same doses", "result": 11.8, "unit": "%"},
      {"measurement": "Lethality, abs.", "setting": "[4]; 96 h, same doses", "result": 4}
    ]}
  ]
}
